# Results published in patent publication US20110066238A1, “RECONSTRUCTED CORNEA AND MUCOUS MEMBRANE” (BASF BEUTY CARE SOLUTIONS FRANCE S.A.S, priority 2008, published 2011).
# Legend:
# Type in all cases: cell-based
# [1] = system: reconstructed human hemi-corneas; experiment: Cellular recovery of reconstructed human hemi-corneas treated with SDS, cell viability
# Protocol: After culturing for 7, 14 or 28 days, the reconstructed human corneal stromas are analysed in the following manner: • the cultures are incubated for 2 hours at 37° C. in 2 ml of MTT (methyl thiazolyl tetrazolium) at 1 mg/ml. The negative control corresponds to the biomaterial not containing keratocytes; • the cultures are then recovered, and then incubated in 4 ml of DMSO (dimethyl sulfoxide) for 4 hours with stirring; • a fraction of the culture supernatant (200 μl) of each sample is recovered and then analysed by spectrophotocolorimetry (550 nm). The optical density read is directly proportional to the number of living cells. The biomaterial that has a porosity of between 40 and 50 μm is suitable for the proliferation of keratocytes. Indeed, the cellular proliferation kinetics of the keratocytes is proportional to the culturing time of the reconstructed human corneal stromas. Furthermore, irrespective of the conditions of manufacture of our biomaterial [1.6%, 1.4% and 1.25% dry matter], as described in Example 2, the keratocytes have a similar degree of proliferation.
# After treatment with SDS, the reconstructed human hemi-corneas are rinsed with culture medium, for example, DMEM, and then recultured for at least a further 24 hours in the culture medium described for the preparation of the reconstructed human hemi-corneas (Example 5). […]
# [2] = system: reconstructed human hemi-corneas; experiment: Cell viability (MTT) of reconstructed human hemi-corneas treated with SDS; conditions: beyond 0.5% SDS, 10 minutes immersion
# [3] = system: reconstructed human hemi-corneas; experiment: Histological study of reconstructed human hemi-corneas treated with SDS; conditions: 10 minutes, complete immersion; 0.5%, 1%, 2%, 3% SDS tested
# Protocol: A cell suspension preferentially containing 2×10^5 corneal epithelial cells/500 μl of culture medium is seeded on the surface of the reconstructed human corneal stroma. The culture medium used is preferentially composed of DMEM/HAM F12 (2/1), 10% foetal calf serum (FCS), EGF (10 ng/ml), insulin (5 μg/ml), adenine (0.18 mM), hydrocortisone (0.4 μg/ml), cholera toxin (0.1 nM), triiodothyronine (2 nM), glutamine (4 mM), ascorbic acid (1 mM), penicillin G (100 IU/ml), gentamicin (20 μg/ml) and amphotericin B (1 μg/ml). The corneal epithelial cells are cultured by immersion for 7 days on the equivalent corneal stroma and with the medium described above.
# The cultures are then raised to the air/liquid interface and then cultured for a further 14 days with a culture medium preferentially composed of DMEM, hydrocortisone (0.4 μg/ml), insulin (5 μg/ml), ascorbic acid (1 mM), penicillin G (100 IU/ml), gentamicin (20 μg/ml) and amphotericin B (1 μg/ml).
# The reconstructed human hemi-corneas are treated for 10 minutes by complete immersion, with increasing solutions of SDS (0.5%, 1%, 2% and 3%). After the treatment, the reconstructed human hemi-corneas are rinsed with culture medium, for example DMEM, and then fixed, for example with formaldehyde, and then included in paraffin. […]
# IL-6 = experiment: Secretion of IL-6 by reconstructed human hemi-corneas treated with SDS (membrane ARRAY); conditions: culture supernatant after at least 24 hours of reculture following SDS treatment; irritant effect without cell mortality
# Protocol: After treating with SDS, the reconstructed human hemi-corneas are rinsed with culture medium, for example, DMEM, and then recultured for at least a further 24 hours in the culture medium described for the preparation of the reconstructed human hemi-corneas (Example 5).
# The culture supernatants of the reconstructed human hemi-corneas are then recovered in order to assay the secreted pro-inflammatory cytokines. The culture supernatants optionally may be frozen before use.
# The inventors evaluated the secretion of IL-6, for example by means of a “membrane ARRAY” method as a function of the cell viability previously studied in Example 6.
# [4] = system: reconstructed human hemi-corneas; experiment: Cellular recovery of reconstructed human hemi-corneas treated with SDS, histological analysis
# Protocol: The reconstructed human hemi-corneas are treated for 10 minutes by complete immersion, with increasing solutions of SDS (0.5%, 1%, 2% and 3%). After the treatment, the reconstructed human hemi-corneas are rinsed with culture medium, for example DMEM, and then fixed, for example with formaldehyde, and then included in paraffin. Paraffin slices are then prepared by microtome, preferentially at a thickness of 5 μm, and then stained, for example, with haematoxylin, phloxin and saffron. […] At and above 0.5% SDS, a histological effect on the reconstructed human hemi-corneas is observed.
# After treatment with SDS, the reconstructed human hemi-corneas are rinsed with culture medium, for example, DMEM, and then recultured for at least a further 24 hours in the culture medium described for the preparation of the reconstructed human hemi-corneas (Example 5). The histological studies are performed as described in Example 5.
smiles,measurement,setting,value
"CCCCCCCCCCCCOS(=O)(=O)[O-].[Na+] [SDS, sodium dodecyl sulfate]",cell viability after recovery (T=48 h) versus after treatment (T=0 h),[1]; 0.5% SDS,significantly equivalent
same,cell viability after recovery (T=48 h) versus after treatment (T=0 h),"[1]; 1%, 2% and 3% SDS",significantly lower cell viability
same,cell viability,[2],less than 75%
same,SDS concentration at which a histological effect is observed,[3],≥ 0.5%
same,secretion of IL-6,IL-6,strong secretion of IL-6
same,epithelial organization after cellular recovery (histology),"[4]; 0.5% and 1% SDS, after 48 hours of cellular recovery",epithelial organization close to that of untreated hemi-corneas
same,epithelial organization after cellular recovery (histology),"[4]; 2% and 3% SDS, after recovery",irreversible epithelial damage
